For the experiment, the target named is T1, Calmodulin-domain protein kinase 1 (Toxoplasma gondii, UniProt Q9BJF5).
T1 sequence (Q9BJF5 whole entry): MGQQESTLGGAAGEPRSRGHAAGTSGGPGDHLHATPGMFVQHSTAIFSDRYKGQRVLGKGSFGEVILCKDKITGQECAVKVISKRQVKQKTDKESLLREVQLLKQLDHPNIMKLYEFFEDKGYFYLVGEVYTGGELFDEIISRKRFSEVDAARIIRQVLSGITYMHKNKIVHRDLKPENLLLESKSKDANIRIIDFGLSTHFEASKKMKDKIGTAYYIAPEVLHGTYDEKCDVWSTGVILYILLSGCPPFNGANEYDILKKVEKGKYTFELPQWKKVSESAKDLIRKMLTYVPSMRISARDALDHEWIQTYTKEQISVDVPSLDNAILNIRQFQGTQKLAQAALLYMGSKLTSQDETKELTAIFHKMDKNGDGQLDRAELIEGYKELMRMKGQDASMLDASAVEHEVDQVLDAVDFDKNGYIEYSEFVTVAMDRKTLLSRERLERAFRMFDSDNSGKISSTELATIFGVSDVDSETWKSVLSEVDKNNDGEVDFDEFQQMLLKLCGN
The experiment can be described thus: Luminescent Kinase Assay: Inhibition of TgCDPK1 and CpCDPK1 was determined using a luminescent kinase assay which measures ATP depletion in the presence of the Syntide 2 peptide substrate (KinaseGlo). For description of the methods and assays, see WO 2011/094628, incorporated by reference herein.

SMILES strings stand for the structures.

One may read the IC50 as the concentration needed to halve the response being measured.

Consider `CC(C)(C)n1cc(C(N)=O)c(-c2ccc3c(N)n[nH]c3c2)n1`, for which the 50% inhibitory concentration (IC50) was determined as 40 nM.

The values above are taken from ChEMBL document CHEMBL5725713, “5-aminopyrazole-4-carboxamide inhibitors of CDPK1 from T. gondii and C. parvum” (2016).
